PubChem BioAssay (NCI)
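Five concentrations, 48 hours, 96-well plates. At the GI50, growth is halved. TGI denotes the concentration required for complete inhibition of growth.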

What was measured:
Assay in all cases: NCI tumour cell line growth inhibition, 48 h
HL-60(TB) leukemia = system: HL-60(TB) leukemia
KM12 colon = system: KM12 colon
MALME-3M melanoma = system: MALME-3M melanoma
MCF7 breast = system: MCF7 breast
MDA-MB-231 breast = system: MDA-MB-231 breast
NCI/ADR-RES ovarian = system: NCI/ADR-RES ovarian
PC-3 prostate = system: PC-3 prostate
RXF 393 renal = system: RXF 393 renal
SW-620 colon = system: SW-620 colon
UACC-257 melanoma = system: UACC-257 melanoma

Row | SMILES | GI50 (HL-60(TB) leukemia) [µM] | TGI (HL-60(TB) leukemia) [µM] | GI50 (KM12 colon) [µM] | TGI (KM12 colon) [µM] | GI50 (MALME-3M melanoma) [µM] | TGI (MALME-3M melanoma) [µM] | GI50 (MCF7 breast) [µM] | TGI (MCF7 breast) [µM] | GI50 (MDA-MB-231 breast) [µM] | TGI (MDA-MB-231 breast) [µM] | GI50 (NCI/ADR-RES ovarian) [µM] | TGI (NCI/ADR-RES ovarian) [µM] | GI50 (PC-3 prostate) [µM] | TGI (PC-3 prostate) [µM] | GI50 (RXF 393 renal) [µM] | TGI (RXF 393 renal) [µM] | GI50 (SW-620 colon) [µM] | TGI (SW-620 colon) [µM] | GI50 (UACC-257 melanoma) [µM] | TGI (UACC-257 melanoma) [µM]
1 | O=C(O[C@H]1CN[C@H](C#Cc2cc3ncnc(Nc4ccc5c(ccn5Cc5cc(F)ccc5F)c4)c3s2)C1)N1CCOCC1 | 3.5 | 11 | 4.57 | 9.25 | 4.06 | 9.41 | 4.13 | > 14.5 | 1.97 | 9.81 | 3.7 | > 23.2 | 5.52 | > 23.7 | 0.413 | 3.32 | 5.16 | 15.1 | 4.2 | 10.6
2 | Cc1ccccc1NC(=O)N/C(N)=N/c1nc(-c2cccc([N+](=O)[O-])c2)cs1 | 3.56 | > 100 | 2.49 | > 100 | 0.943 | 4.73 | 1.47 | > 100 | 1.6 | 4.03 | 1.82 | 7.22 | 2.66 | > 100 | 1.78 | 4.33 | 2.3 | > 100 | 4.85 | > 100
3 | NOCC(=O)O | 32.2 | > 100 | > 100 | > 100 | > 100 | > 100 | > 100 | > 100 | 53.2 | > 100 | > 100 | > 100 | > 100 | > 100 | > 100 | > 100 | > 100 | > 100 | > 100 | > 100
4 | O=C1c2ccccc2-c2c1c1ccccc1c(=O)n2CCCNCCCn1ccnc1 | 0.653 | 5.01 | 0.593 | 2.41 | 3.33 | 13.4 | 0.772 | 12.7 | 2.68 | 7.36 | 1.66 | 4.45 | 1.58 | 9.75 | 1.48 | 4.31 | 0.24 | 1.82 | 4.62 | 23.1
5 | O=[N+]([O-])c1cc(Cl)c(Cl)c([N+](=O)[O-])c1Cl | 0.439 | 2.92 | 1.44 | 2.97 | 0.473 | 2.18 | 1.14 | 3.42 | 1.81 | 3.79 | 1.91 | 3.75 | 1.81 | 3.57 | 1.82 | 3.25 | 0.763 | 3.36 | 1.56 | 3.08
6 | CC(=O)CC(=O)Nc1ccc2ccccc2c1 | – | > 100 | – | > 100 | – | > 100 | – | > 100 | – | > 100 | – | > 100 | – | > 100 | – | > 100 | – | > 100 | – | > 100
7 | Cc1cc(C)c([O-])c(CN(C)CCN(C)Cc2cc(C)cc(C)c2[O-])c1.O=C([O-])c1cccc(C(=O)[O-])n1.[Ti+4] | 1.69 | 5.56 | 3.36 | > 100 | 1.45 | 5.21 | 3.17 | > 100 | 3.42 | > 100 | 2.71 | > 100 | 2.7 | > 100 | 1.42 | 3.96 | 2.89 | > 100 | – | –
8 | O=c1ccn(C2OC(CO)C(O)C2F)c(=O)[nH]1 (centres undefined) | > 1000 | > 1000 | > 1000 | > 1000 | > 1000 | > 1000 | > 1000 | > 1000 | > 1000 | > 1000 | > 1000 | > 1000 | > 1000 | > 1000 | > 1000 | > 1000 | > 1000 | > 1000 | > 1000 | > 1000
9 | CC[C@H](NC(=O)[C@H](C)NC)C(=O)N1C[C@@H](O)C[C@H]1Cc1c(-c2[nH]c3cc(F)ccc3c2C[C@@H]2C[C@H](O)CN2C(=O)[C@H](CC)NC(=O)[C@H](C)NC)[nH]c2cc(F)ccc12 | 7.15 | 42.9 | > 100 | > 100 | > 100 | > 100 | > 53.3 | > 100 | 0.0349 | 2.18 | > 100 | > 100 | > 100 | > 100 | 2.27 | > 20.1 | > 100 | > 100 | 0.0431 | > 100
10 | CC(=O)[O-].CC(=O)[O-].[Pt+2].c1cscn1.c1cscn1 | 36.4 | > 100 | > 100 | > 100 | > 100 | > 100 | 37.3 | > 100 | > 100 | > 100 | > 100 | > 100 | > 100 | > 100 | > 100 | > 100 | 47.5 | > 100 | 31.9 | 85.3
11 | Nc1c(C(=O)c2ccc(Cl)cc2)sc(Nc2ccccc2)c1-c1nc2ccccc2s1 | > 57.3 | > 100 | 0.812 | > 100 | 0.751 | > 100 | 1.65 | > 100 | 2.35 | > 100 | 3.34 | > 100 | 2.35 | > 100 | 10.5 | 33.1 | 1.2 | > 100 | > 100 | > 100
12 | COC(=O)c1cc2c(cc1Cl)SC(N(N(C)C)S(=O)(=O)c1ccc(Br)s1)=NS2(=O)=O | 19.6 | 44.5 | 24.8 | 74.4 | 24.9 | 74 | 22.4 | 44.7 | 20.3 | 43.9 | 23.7 | 59.9 | 16 | 35.1 | – | – | 18.6 | 36.3 | – | –
